# Laboratory results taken from ChEMBL document CHEMBL1159167, “Synthesis and biological activity of 5-[(2,5-dihydroxybenzyl)amino]salicylic acid analogs as inhibitors of EGF receptor-associated protein tyrosine kinase” (Bioorg Med Chem Lett, 1997).
# Molecular target: Epidermal growth factor receptor (Homo sapiens, UniProt P00533)
# Assay: Displacement of [gamma-32P]-ATP from Epidermal growth factor receptor in A431 cell-free extracts
# Set-up: species or system A-431
# Sequence of Epidermal growth factor receptor (P00533 whole entry): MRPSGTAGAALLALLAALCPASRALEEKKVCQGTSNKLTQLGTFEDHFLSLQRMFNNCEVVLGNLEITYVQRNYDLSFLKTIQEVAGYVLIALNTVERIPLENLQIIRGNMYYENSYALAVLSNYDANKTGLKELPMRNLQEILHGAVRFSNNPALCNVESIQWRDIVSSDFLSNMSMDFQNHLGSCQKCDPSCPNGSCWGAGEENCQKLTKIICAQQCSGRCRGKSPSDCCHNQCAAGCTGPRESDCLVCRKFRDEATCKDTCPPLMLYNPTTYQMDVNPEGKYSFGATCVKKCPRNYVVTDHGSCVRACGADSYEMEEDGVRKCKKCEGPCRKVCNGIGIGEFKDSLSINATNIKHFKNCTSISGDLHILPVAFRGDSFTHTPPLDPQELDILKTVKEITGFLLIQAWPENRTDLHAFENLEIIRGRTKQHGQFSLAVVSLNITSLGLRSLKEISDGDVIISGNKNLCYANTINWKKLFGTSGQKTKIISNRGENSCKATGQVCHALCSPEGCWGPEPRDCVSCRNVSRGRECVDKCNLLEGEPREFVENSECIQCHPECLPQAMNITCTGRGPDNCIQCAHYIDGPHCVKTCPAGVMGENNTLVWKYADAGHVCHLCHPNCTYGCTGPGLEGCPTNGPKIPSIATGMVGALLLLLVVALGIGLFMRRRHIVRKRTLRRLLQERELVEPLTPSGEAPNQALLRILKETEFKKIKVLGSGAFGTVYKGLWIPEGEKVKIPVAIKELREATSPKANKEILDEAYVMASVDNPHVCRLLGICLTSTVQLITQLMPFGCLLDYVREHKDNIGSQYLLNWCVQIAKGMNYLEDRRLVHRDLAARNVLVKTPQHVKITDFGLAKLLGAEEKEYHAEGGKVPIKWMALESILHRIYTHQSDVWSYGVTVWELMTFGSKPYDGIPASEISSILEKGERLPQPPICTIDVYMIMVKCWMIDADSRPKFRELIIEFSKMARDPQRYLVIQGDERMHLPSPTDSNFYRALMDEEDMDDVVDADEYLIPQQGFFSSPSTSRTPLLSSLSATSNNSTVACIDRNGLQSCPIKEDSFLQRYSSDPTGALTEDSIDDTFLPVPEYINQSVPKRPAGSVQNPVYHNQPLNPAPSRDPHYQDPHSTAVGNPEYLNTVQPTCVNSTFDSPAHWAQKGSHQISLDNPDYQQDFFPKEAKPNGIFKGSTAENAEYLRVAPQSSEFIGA
row,SMILES,IC50 [µM]
1,CNC(=O)c1cc(NCc2cc(O)ccc2O)ccc1O,9.7
2,CCCCCCCCCCCCCCNC(=O)c1cc(NCc2cc(O)ccc2O)ccc1O,27.2
3,O=S(=O)(O)c1cc(NCc2cc(O)ccc2O)ccc1O,10.3
4,Oc1ccc(NCc2cc(O)ccc2O)cc1,41.9

# These reach a lower IC50. Values come first.
row,IC50 [µM],SMILES
1,0.9,CCCCCCNC(=O)c1cc(NCc2cc(O)ccc2O)ccc1O
2,5.4,O=[N+]([O-])c1cc(NCc2cc(O)ccc2O)ccc1O
